17 compounds from US11485742B2, “2-azaspiro[3.4]octane derivatives as M4 agonists” (NOVARTIS AG, priority 2019, dated 2022) can be followed below.

Test [1] concerns the target T1, human cloned CHRM4 receptor (Homo sapiens, UniProt P08173).
T1 construct: expressed in transfected cells; host or cells: CHO-K1 (M4_CHO)
T1 sequence (P08173 1-479): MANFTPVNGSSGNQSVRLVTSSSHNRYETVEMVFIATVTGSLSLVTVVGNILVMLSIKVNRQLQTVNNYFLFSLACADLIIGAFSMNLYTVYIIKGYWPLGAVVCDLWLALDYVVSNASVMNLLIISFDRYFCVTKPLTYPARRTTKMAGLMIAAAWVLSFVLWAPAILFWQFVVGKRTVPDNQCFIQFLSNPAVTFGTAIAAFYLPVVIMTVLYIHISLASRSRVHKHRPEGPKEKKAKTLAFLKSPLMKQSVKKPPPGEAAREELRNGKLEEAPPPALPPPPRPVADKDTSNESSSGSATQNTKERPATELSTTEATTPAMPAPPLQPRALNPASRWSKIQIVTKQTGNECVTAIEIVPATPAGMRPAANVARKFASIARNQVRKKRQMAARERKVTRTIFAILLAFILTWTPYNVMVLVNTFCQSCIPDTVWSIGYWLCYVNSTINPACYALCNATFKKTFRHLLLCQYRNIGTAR
Put plainly: CHRM4 Ca++ Flux Assay (M4_CHO cells, agonist mode). It counts as cell-based. The note with it: for Emax: Percent Activity (PA), read-out: M4 FDSS PA %; for EC50: geometric mean if tested more than once, read-out: M4 FDSS EC50. In short, it runs like this:
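CHO-K1 cells stably expressing human M4 were dye-loaded, then held 60 min at RT in Ca/Mg-free HBSS buffer with 20 μM ATP. Ca++ traces were recorded over 3 min after an 11-point compound series in triplicate, agonist mode, with a four-parameter fit. Percent activity is relative to the carbachol EC100; repeat tests are geometric means.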

The target of test [2] is T2, human cloned CHRM2 receptor (Homo sapiens, UniProt P08172).
T2 construct: expressed in transfected cells; host or cells: CHO-K1 (M2_CHO)
T2 sequence (P08172 1-466): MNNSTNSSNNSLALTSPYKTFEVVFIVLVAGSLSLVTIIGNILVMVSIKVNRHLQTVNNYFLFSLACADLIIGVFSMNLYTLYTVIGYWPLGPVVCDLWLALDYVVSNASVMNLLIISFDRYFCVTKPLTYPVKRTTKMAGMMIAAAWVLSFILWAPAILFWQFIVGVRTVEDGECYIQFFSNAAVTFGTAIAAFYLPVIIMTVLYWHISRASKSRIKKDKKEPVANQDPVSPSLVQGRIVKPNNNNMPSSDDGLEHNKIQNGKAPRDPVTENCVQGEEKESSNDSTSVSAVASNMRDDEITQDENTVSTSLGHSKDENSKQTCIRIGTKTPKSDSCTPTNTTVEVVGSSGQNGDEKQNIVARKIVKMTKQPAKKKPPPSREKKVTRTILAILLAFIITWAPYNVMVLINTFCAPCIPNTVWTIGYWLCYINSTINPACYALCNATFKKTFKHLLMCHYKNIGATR
Put plainly: CHRM2 Ca++ Flux Assay (M2_CHO cells, agonist mode). In kind it is cell-based. The following applies: M2 CHO cells; for EC50: agonist mode, geometric mean if tested more than once, read-out: M2 FDSS EC50; for Emax: Percent Activity (PA) measured to EC100 of Carbachol, read-out: M2 FDSS PA %. In a few lines:
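CHO-K1 cells stably expressing human CHRM2 were plated overnight at 12K cells/well and loaded with Ca++ dye for 1–2 h. They were then held 60 minutes in HBSS −Ca/−Mg, 20 mM HEPES, 2.5 mM probenecid, 20 μM ATP. Agonist-mode Ca++ flux was read over 3 minutes. Four-parameter fits of triplicates gave percent activity relative to carbachol EC100.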

For the compound `Fc1cc(O[C@@H]2CCOC2)c(C2CCN([C@@H]3COC4(C3)CN(c3nnco3)C4)CC2)cc1F` [Example 1R, (S)-7-(4-(4,5-difluoro-2-(((R)-tetrahydrofuran-3-yl)oxy)phenyl)piperidin-1-yl)-2-(1,3,4-oxadiazol-2-yl)-5-oxa-2-azaspiro[3.4]octane], in test [1], the Emax amounted to 77% and the EC50 (in general, the concentration at which the effect is half-maximal) worked out at 41 nM. Also, in test [2], the EC50 turned out to be 359 nM and the Emax was 32%.
Turning to `Cc1cc(COc2ccc(F)cc2C2CCN([C@@H]3COC4(C3)CN(c3nnco3)C4)CC2)on1` [Example 2G, (S)-7-(4-(5-fluoro-2-((3-methylisoxazol-5-yl)methoxy)phenyl)piperidin-1-yl)-2-(1,3,4-oxadiazol-2-yl)-5-oxa-2-azaspiro[3.4]octane], in test [1], the Emax was 86% and the EC50 was determined as 3 nM. Besides, in test [2], the concentration giving a half-maximal response (EC50) came to 61 nM and the Emax came out at 55%.
Taken in the same sequence, the figures for `Fc1ccc(OC[C@H]2CCCO2)c(C2CCN([C@@H]3COC4(C3)CN(c3nnco3)C4)CC2)c1` [Example 2M, (S)-7-(4-(5-fluoro-2-(((R)-tetrahydrofuran-2-yl)methoxy)phenyl)piperidin-1-yl)-2-(1,3,4-oxadiazol-2-yl)-5-oxa-2-azaspiro[3.4]octane] were 58%, 145 nM, 2030 nM and 20%.
As for `Fc1ccc(OC2COCOC2)c(C2CCN([C@@H]3COC4(C3)CN(c3nnco3)C4)CC2)c1` [Example 1M, (S)-7-(4-(2-((1,3-dioxan-5-yl)oxy)-5-fluorophenyl)piperidin-1-yl)-2-(1,3,4-oxadiazol-2-yl)-5-oxa-2-azaspiro[3.4]octane], in test [1], the Emax was 79% and the EC50 worked out at 94 nM. In addition, in test [2], the EC50 is 752 nM and the Emax is 23%.
Taken in the same sequence, the figures for `Fc1ccc(OC[C@H]2CCOC2)c(C2CCN([C@@H]3COC4(C3)CN(c3nncs3)C4)CC2)c1` [Example 5X, (S)-7-(4-(5-fluoro-2-(((S)-tetrahydrofuran-3-yl)methoxy)phenyl)piperidin-1-yl)-2-(1,3,4-thiadiazol-2-yl)-5-oxa-2-azaspiro[3.4]octane] were 71%, 58 nM, 1420 nM and 43%.
Regarding `CC(C)(O)CCOc1cc(F)ccc1C1CCN([C@@H]2COC3(C2)CN(c2nnco2)C3)CC1` [Example 1T, (S)-4-(2-(1-(2-(1,3,4-oxadiazol-2-yl)-5-oxa-2-azaspiro[3.4]octan-7-yl)piperidin-4-yl)-5-fluorophenoxy)-2-methylbutan-2-ol], in test [1], the Emax came to 45% and the EC50 turned out to be 157 nM. Besides, in test [2], the concentration giving a half-maximal response (EC50) was more than 25000 nM and the Emax is 0%.
For `Fc1ccc(OC2CC3(COC3)C2)c(C2CCN([C@H]3COC4(C3)CN(c3nnco3)C4)CC2)c1` [Example 7A, (R)-7-(4-(2-((2-oxaspiro[3.3]heptan-6-yl)oxy)-5-fluorophenyl)piperidin-1-yl)-2-(1,3,4-oxadiazol-2-yl)-5-oxa-2-azaspiro[3.4]octane], the Emax came out at 42% in test [1] and 0% in test [2]. The EC50 was 1410 nM in test [1] and more than 25000 nM in test [2].
Regarding `Fc1ccc(OCC2(F)COC2)c(C2CCN([C@@H]3COC4(C3)CN(c3nnco3)C4)CC2)c1` [Example 2J, (S)-7-(4-(5-fluoro-2-((3-fluorooxetan-3-yl)methoxy)phenyl)piperidin-1-yl)-2-(1,3,4-oxadiazol-2-yl)-5-oxa-2-azaspiro[3.4]octane], in test [1], the Emax worked out at 90% and the 50% effective concentration (EC50) was determined as 12 nM. Moreover, in test [2], the EC50 was found to be 214 nM and the Emax was determined as 62%.
Taken in the same sequence, the figures for `CC(C)(O)CCOc1ccc(F)cc1C1CCN([C@@H]2COC3(C2)CN(c2nnco2)C3)CC1` [Example 1N, (S)-4-(2-(1-(2-(1,3,4-oxadiazol-2-yl)-5-oxa-2-azaspiro[3.4]octan-7-yl)piperidin-4-yl)-4-fluorophenoxy)-2-methylbutan-2-ol] were 63%, 133 nM, more than 25000 nM and 0%.
Consider `CCC1(COc2ccc(F)cc2C2CCN([C@@H]3COC4(C3)CN(c3nnco3)C4)CC2)COC1` [Example 2P, (S)-7-(4-(2-((3-ethyloxetan-3-yl)methoxy)-5-fluorophenyl)piperidin-1-yl)-2-(1,3,4-oxadiazol-2-yl)-5-oxa-2-azaspiro[3.4]octane], for which the Emax in test [1] worked out at 75%; in test [2], 36%. Further, the EC50 in test [1] was 85 nM; in test [2], 1070 nM.
Taken in the same sequence, the figures for `Fc1ccc(OC2CC3(COC3)C2)c(C2CCN([C@@H]3COC4(C3)CN(c3ncon3)C4)CC2)c1` [Example 6C, (S)-7-(4-(2-((2-oxaspiro[3.3]heptan-6-yl)oxy)-5-fluorophenyl)piperidin-1-yl)-2-(1,2,4-oxadiazol-3-yl)-5-oxa-2-azaspiro[3.4]octane] were 74%, 18%, 44 nM and 1510 nM.
In the case of `Cc1nnc(-c2ccccc2C2CCN([C@@H]3COC4(C3)CN(c3nnco3)C4)CC2)o1` [Example 1Y, (S)-7-(4-(2-(5-methyl-1,3,4-oxadiazol-2-yl)phenyl)piperidin-1-yl)-2-(1,3,4-oxadiazol-2-yl)-5-oxa-2-azaspiro[3.4]octane], the Emax in test [1] came to 86%; in test [2] it was 35%. The concentration giving a half-maximal response (EC50) in test [1] is 112 nM; in test [2] it was 874 nM.
The corresponding values for `Fc1ccc(OCC2COC2)c(C2CCN([C@@H]3COC4(C3)CN(c3nnco3)C4)CC2)c1` [Example 2H, (S)-7-(4-(5-fluoro-2-(oxetan-3-ylmethoxy)phenyl)piperidin-1-yl)-2-(1,3,4-oxadiazol-2-yl)-5-oxa-2-azaspiro[3.4]octane] are 88%, 60%, 6 nM and 309 nM.
The corresponding values for `OC1(COc2ccc(F)cc2C2CCN([C@@H]3COC4(C3)CN(c3nnco3)C4)CC2)COC1` [Example 2U, (S)-3-((2-(1-(2-(1,3,4-oxadiazol-2-yl)-5-oxa-2-azaspiro[3.4]octan-7-yl)piperidin-4-yl)-4-fluorophenoxy)methyl)oxetan-3-ol] are 86%, 51%, 12 nM and 275 nM.
Turning to `Fc1ccc(OC2CC3(COC3)C2)c(C2CCN([C@@H]3COC4(C3)CN(c3nncs3)C4)CC2)c1` [Example 5W, (S)-7-(4-(2-((2-oxaspiro[3.3]heptan-6-yl)oxy)-5-fluorophenyl)piperidin-1-yl)-2-(1,3,4-thiadiazol-2-yl)-5-oxa-2-azaspiro[3.4]octane], in test [1], the Emax is 85% and the EC50 turned out to be 104 nM. In addition, in test [2], the EC50 was found to be 20700 nM and the Emax stood at 30%.
The corresponding values for `CC1(COc2ccc(F)cc2C2CCN([C@@H]3COC4(C3)CN(c3nnco3)C4)CC2)COC1` [Example 2K, (S)-7-(4-(5-fluoro-2-((3-methyloxetan-3-yl)methoxy)phenyl)piperidin-1-yl)-2-(1,3,4-oxadiazol-2-yl)-5-oxa-2-azaspiro[3.4]octane] are 82%, 18 nM, 498 nM and 47%.
Taken in the same sequence, the figures for `Fc1ccc(OC[C@H]2CCOC2)c(C2CCN([C@@H]3COC4(C3)CN(c3nnco3)C4)CC2)c1` [Example 1I, (S)-7-(4-(5-fluoro-2-(((S)-tetrahydrofuran-3-yl)methoxy)phenyl)piperidin-1-yl)-2-(1,3,4-oxadiazol-2-yl)-5-oxa-2-azaspiro[3.4]octane] were 69%, 35 nM, 531 nM and 32%.
